This is an account of results in US5874445A, “(+) -α- (2,3-dimethoxyphenyl)-1-(2-(4-fluorephenyl) ethyl)-4-piepridinemethanol” (Merrell Pharmaceutical, Inc., priority 1997, dated 1999).

Read-outs that look alike come from different tables or passages of the source.

The target in one data set is T1, 5HT2 receptor (Mus musculus, UniProt P35363).
T1 construct: The administration of 5-methoxy-N,N-dimethyltryptamine 5-MeO-DMT to mice typically produces a characteristic head twitch in the mice; from tissue; host or cells: living mice (in vivo, endogenous receptor)
T1 sequence (P35363 whole entry): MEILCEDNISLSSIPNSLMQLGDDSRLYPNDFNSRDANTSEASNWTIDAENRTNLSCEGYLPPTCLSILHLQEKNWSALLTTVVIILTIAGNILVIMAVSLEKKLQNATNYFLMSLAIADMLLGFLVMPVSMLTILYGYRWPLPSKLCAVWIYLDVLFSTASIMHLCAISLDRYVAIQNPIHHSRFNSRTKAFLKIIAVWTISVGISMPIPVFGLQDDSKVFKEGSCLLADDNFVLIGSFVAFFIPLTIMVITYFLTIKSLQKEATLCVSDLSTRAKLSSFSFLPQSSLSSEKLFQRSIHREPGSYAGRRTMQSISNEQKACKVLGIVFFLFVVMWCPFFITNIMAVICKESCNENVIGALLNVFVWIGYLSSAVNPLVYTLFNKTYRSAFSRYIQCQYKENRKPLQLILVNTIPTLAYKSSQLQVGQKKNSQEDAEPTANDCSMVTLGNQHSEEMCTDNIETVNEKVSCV
The data set can be described thus: (5-MeO-DMT) head twitch test. The class given is in vivo, mice. The settings on record: ip, read-out: ED50 FOR ABOLITION OF HEAD TWITCH. How it is done: Psychopharmacol., Vol. 3, pages 89-92, (1979). The administration of 5-methoxy-N,N-dimethyltryptamine 5-MeO-DMT to mice typically produces a characteristic head twitch in the mice. In this test, the mice are administered 5-MeO-DMT and a test compound. An absence of head twitches in the mice is considered to be predictive of the ability of the test compound to antagonize the 5HT2 receptor in vivo.

The test system of another data set is coronary vessels. The settings on record: patients with stable angina, intracoronary infusion, McFadden et al, cited from earlier work.
For data set [1], the system named is preference for both alcohol and cocaine. The settings on record: rodent model of drug abuse; Meert et al; cited from earlier work.
The subject of the next data set is thrombus formation. The settings on record: canine models; Bush et al., Drug Development Research, Vol. 7, 319-340 (1986); cited from earlier work.
For another data set, the system named is coronary vessel. The settings on record: patients with stable angina; Golino et al, NEJM 1991; 324:641-648; cited from earlier work.
The mark [2] stands for this setting: mice, 5-MeO-DMT induced head twitch.

As for `OC(c1ccccc1)C1CCN(CCc2ccccc2)CC1` (racemic) [Compound B racemic, α-phenyl-1-(2-phenylethyl)-4-piperidinemethanol], the ED50 at 5HT2 receptor (setting [2]) is 3.28 mg/kg. For the molecule `COc1cccc(C(O)C2CCN(CCc3ccc(F)cc3)CC2)c1OC` (single isomer, unassigned) [Invention, (+)-α-(2,3-dimethoxyphenyl)-1-[2-(4-fluorophenyl)ethyl]-4-piperidinemethanol], on 5HT2 receptor, the ED50 amounted to 0.03 mg/kg. As for `NCCc1c[nH]c2ccc(O)cc12` [serotonin], the “anginal attacks during infusions” value in the data set on coronary vessels is “experienced anginal attacks during these infusions”. The “constriction of the coronary vessels” value with coronary vessels (all concentrations tested, NEJM 1991, 324:648-654) is reported as “induced constriction of the coronary vessels in these patients at all concentrations tested”. In the case of `Cc1nc2sccn2c(=O)c1CCN1CCC(=C(c2ccc(F)cc2)c2ccc(F)cc2)CC1` [ritanserin], the “preference for both alcohol and cocaine” value in data set [1] is “abolished the preference for both alcohol and cocaine”. With `OC(c1ccccc1)C1CCN(CCc2ccccc2)CC1` (single isomer, unassigned) [Compound B (+)-isomer, α-phenyl-1-(2-phenylethyl)-4-piperidinemethanol], the 50% effective dose (ED50) on 5HT2 receptor (setting [2]) is 0.87 mg/kg.

For the molecule `O=C(c1ccc(F)cc1)C1CCN(CCn2c(=O)[nH]c3ccccc3c2=O)CC1` [Ketanserin], the preventing thrombus formation entry in the data set on thrombus formation was “extremely effective in preventing thrombus formation”. Moreover, in the data set with coronary vessel, the coronary vessel constriction result is given as “blocked coronary vessel constriction in patients with stable angina”.

In the case of `COc1cccc(C(O)C2CCN(CCc3ccccc3)CC2)c1OC` (racemic) [Compound C racemic, α-(2,3-dimethoxyphenyl)-1-(2-phenylethyl)-4-piperidinemethanol], the ED50 on 5HT2 receptor stood at 2.04 mg/kg.

In general, ED50 refers to the dose that gives a 50% effect, or the effect in half of the subjects.
